The values below come from patent publication US11261186B2, “Biaryl derivative as GPR120 agonist” (LG CHEM, LTD., priority 2014, dated 2022).

For the assay, the target named is T1, hGPR120 (Homo sapiens, UniProt Q5NUL3).
T1 construct: expressed in transfected cells; host or cells: CHO-K1
T1 sequence (Q5NUL3 1-361): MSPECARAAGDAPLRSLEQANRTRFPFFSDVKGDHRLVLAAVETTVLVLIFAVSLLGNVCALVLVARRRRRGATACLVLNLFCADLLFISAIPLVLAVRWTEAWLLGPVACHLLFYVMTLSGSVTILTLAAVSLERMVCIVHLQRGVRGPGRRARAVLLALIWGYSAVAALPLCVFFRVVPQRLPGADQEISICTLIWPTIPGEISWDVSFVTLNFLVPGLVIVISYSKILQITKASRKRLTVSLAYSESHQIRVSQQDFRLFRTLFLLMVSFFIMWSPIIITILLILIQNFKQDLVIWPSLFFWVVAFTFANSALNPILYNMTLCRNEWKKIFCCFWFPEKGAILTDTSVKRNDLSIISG
Kind of assay: Measurement of Activity of GPR120 Agonist (Cell-Based Assay), Calcium 5 dye fluorescence. The note with it: CHO-K1 cells expressing Ga16 and hGPR120. The method, boiled down: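 Gα16/hGPR120 CHO-K1; 18 h plating, 37 °C, 5% CO2; Calcium 5 dye load 1 h; agonist serial dilution, 0.5% DMSO final; fluor Ex485/Em525; response as % of 1% DMSO vehicle.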

On to `Cc1ccc(OCC2CCC2)cc1-c1cc(F)c(OCCCC(=O)O)c(F)c1` [Example 530, 4-(5′-cyclobutylmethoxy-3,5-difluoro-2′-methyl-biphenyl-4-yloxy)-butyric acid], for which the concentration for a half-maximal effect (EC50) is less than 200 nM. Regarding `CC(C)Sc1ncccc1-c1ccc(N2CCC(CC(=O)O)CC2)c(F)c1` [Example 138, 2-[1-[2-fluoro-4-(2-isopropylsulfanyl-3-pyridyl)phenyl]-4-piperidyl]acetic acid], the EC50 is 200 to 2000 nM. In the case of `CN(CCCC(=O)O)c1c(F)cc(-c2cccc(OC3CCCC3)n2)cc1F` [Example 204, 4-{[4-(6-cyclopentyloxy-pyridin-2-yl)-2,6-difluoro-phenyl]-methyl-amino}-butyric acid] it was less than 200 nM. With `O=C(O)CCCCc1c(F)cc(-c2cccnc2OCC2CCC2)cc1F` [Example 250, 5-[4-(2-cyclobutylmethoxy-pyridin-3-yl)-2,6-difluoro-phenyl]-pentanoic acid] the figure was less than 200 nM; with `O=C(O)CCCCc1ccc(-c2cccnc2SC2CCC2)cc1F` [Example 249, 5-[4-(2-cyclobutylsulfanyl-pyridin-3-yl)-2-fluoro-phenyl]-pentanoic acid], less than 200 nM. `CC(C)Sc1cccc(-c2cc(F)c(NCCCCC(=O)O)c(F)c2)n1` [Example 96, 5-[2,6-difluoro-4-(6-isopropylsulfanyl-2-pyridyl)anilino]pentanoic acid]: the EC50 lay within 200 to 2000 nM. With `CN(CCCC(=O)O)c1c(F)cc(-c2cccnc2OC2CCC2)cc1F` [Example 206, 4-{[4-(2-cyclobutoxy-pyridin-3-yl)-2,6-difluoro-phenyl]-methyl-amino}-butyric acid] the figure was less than 200 nM.

`Cc1nsc(OC2CCC2)c1-c1cc(F)c(N2CCC(CC(=O)O)C2)c(F)c1` (stereo not drawn) [Example 591, {1-[4-(5-cyclobutoxy-3-methyl-isothiazol-4-yl)-2,6-difluoro-phenyl]-pyrrolidin-3-yl}-acetic acid]: the concentration for a half-maximal effect (EC50) is less than 200 nM. With `CN(Cc1cc(O)no1)c1ccc(-c2cccnc2OC2CCCC2)cc1` [Example 86, 5-[[4-[2-(cyclopentoxy)-3-pyridyl]-N-methyl-anilino]methyl]isoxazol-3-ol] the figure was less than 200 nM.

Turning to `CC(CCCC(=O)O)c1c(F)cc(-c2cccc(OC3CCC3)n2)cc1F` (stereo not drawn) [Example 41, 5-[4-(6-cyclobutoxy-2-pyridyl)-2,6-difluoro-phenyl]hexanoic acid], the EC50 was less than 200 nM. As to `O=C(O)CCCOc1c(F)cc(-c2cc(F)cc(OC3CCC3)c2)cc1F` [Example 528, 4-(5′-cyclobutoxy-3,5,3′-trifluoro-biphenyl-4-yloxy)-butyric acid], the EC50 is less than 200 nM. `O=C(O)CCC1CCc2cc(-c3cccnc3OCC3CC3)ccc2O1` (stereo not drawn) [Example 276, 3-[6-(2-cyclopropylmethoxy-pyridin-3-yl)-chroman-2-yl]-propionic acid]: the concentration for a half-maximal effect (EC50) fell in the range of 200 to 2000 nM. In the case of `O=C(O)CCCOc1c(F)cc(-c2cccc(OCC3CCC3)n2)cc1F` [Example 523, 4-[4-(6-cyclobutylmethoxy-pyridin-2-yl)-2,6-difluoro-phenoxy]-butyric acid] it was less than 200 nM. On to `O=C(O)CC1CCN(c2c(F)cc(-c3cccnc3SC3CCCC3)cc2F)CC1` [Example 100, 2-[1-[4-(2-cyclopentylsulfanyl-3-pyridyl)-2,6-difluoro-phenyl]-4-piperidyl]acetic acid], for which the EC50 is less than 200 nM. With `O=C(O)CC1CCN(c2c(F)cc(-c3cccc(COC4CCC4)n3)cc2F)CC1` [Example 313, 2-[1-[4-[6-(cyclobutoxymethyl)-2-pyridyl]-2,6-difluoro-phenyl]-4-piperidyl]acetic acid] the figure was more than 20000 nM. In the case of `O=C(O)CCCOc1ccc(-c2cccnc2SC2CCC2)cc1F` [Example 235, 4-[4-(2-cyclobutylsulfanyl-pyridin-3-yl)-2-fluoro-phenoxy]-butyric acid] it was less than 200 nM; in that of `CCOc1nc(-c2cc(F)c(N3CCC(CC(=O)O)CC3)c(F)c2)sc1C` [Example 368, {1-[4-(4-ethoxy-5-methyl-thiazol-2-yl)-2,6-difluoro-phenyl]-piperidin-4-yl}acetic acid], 200 to 2000 nM.

`O=C(O)CC1CCN(c2c(F)cc(-c3cccc(OCC4CC4)c3)cc2F)CC1` [Example 301, 2-[1-[4-[3-(cyclopropylmethoxy)phenyl]-2,6-difluoro-phenyl]-4-piperidyl]acetic acid]: the 50% effective concentration (EC50) lay within 200 to 2000 nM. With `CC(CCCC(=O)O)c1ccc(-c2cccnc2SC2CCC2)cc1` (stereo not drawn) [Example 39, 5-[4-(2-cyclobutylsulfanyl-3-pyridyl)phenyl]hexanoic acid] the figure was less than 200 nM; with `O=C(O)CCCOc1ccc(-c2cc(F)cc(OC3CCC3)c2)cc1F` [Example 536, 4-(5′-cyclobutoxy-3,3′-difluoro-biphenyl-4-yloxy)-butyric acid], less than 200 nM; with `CN(CCCC(=O)O)c1c(F)cc(-c2cccnc2SC2CCCC2)cc1F` [Example 197, 4-{[4-(2-cyclopentylsulfanyl-pyridin-3-yl)-2,6-difluoro-phenyl]-methyl-amino}-butyric acid], less than 200 nM. As for `CC(CCCC(=O)O)c1c(F)cc(-c2cccc(SC3CCCC3)n2)cc1F` (stereo not drawn) [Example 54, 5-[4-(6-cyclopentylsulfanyl-2-pyridyl)-2,6-difluoro-phenyl]hexanoic acid], the EC50 is less than 200 nM. As for `O=C(O)CCCCc1ccc(-c2cccnc2SC2CCCC2)cc1F` [Example 248, 5-[4-(2-cyclopentylsulfanyl-pyridin-3-yl)-2-fluoro-phenyl]-pentanoic acid], the EC50 was less than 200 nM. With `O=C(O)CCCC(F)(F)c1ccc(-c2cccnc2OC2CCC2)cc1` [Example 185, 5-[4-(2-cyclobutoxy-pyridin-3-yl)-phenyl]-5,5-difluoro-pentanoic acid] the figure was less than 200 nM; with `COc1ccc(-c2cc(F)c(N3CCC(CC(=O)O)CC3)c(F)c2)cc1OC1CCC1` [Example 305, 2-[1-[4-[3-(cyclobutoxy)-4-methoxy-phenyl]-2,6-difluoro-phenyl]-4-piperidyl]acetic acid], 200 to 2000 nM. As to `O=C(O)CCCCc1c(F)cc(-c2cccc(OC3CCC3)n2)cc1F` [Example 32, 5-[4-(6-cyclobutoxy-2-pyridyl)-2,6-difluoro-phenyl]pentanoic acid], the EC50 is less than 200 nM. With `CCN(CC)c1cncc(-c2cc(F)c(N3CCC(CC(=O)O)CC3)c(F)c2)n1` [Example 355, 2-[1-[4-[6-(diethylamino)pyrazin-2-yl]-2,6-difluoro-phenyl]-4-piperidyl]acetic acid] the figure was 2000 to 20000 nM; with `Cc1nsc(OC2CCC2)c1-c1cc(F)c(N2CCC(CC(=O)O)CC2)c(F)c1` [Example 366, 2-[1-[4-[5-(cyclobutoxy)-3-methyl-isothiazol-4-yl]-2,6-difluoro-phenyl]-4-piperidyl]acetic acid], 200 to 2000 nM.

On to `O=C(O)CCCOc1c(F)cc(-c2cccc(SC3CCC3)c2)cc1F` [Example 409, 4-(3′-cyclobutylsulfanyl-3,5-difluoro-biphenyl-4-yloxy)-butyric acid], for which the EC50 was less than 200 nM.

Turning to `O=C(O)CCCCc1ccc(-c2cccnc2OCC2CCC2)cc1F` [Example 246, 5-[4-(2-cyclobutylmethoxy-pyridin-3-yl)-2-fluoro-phenyl]-pentanoic acid], the EC50 was less than 200 nM.

Usually EC50 stands for the midpoint of the concentration-response curve.
